Source: ChEMBL document CHEMBL5465560, “Selectivity Literature for EUbOPEN Chemogenomic Library” (2024)
Values belong to the compound of their own block, whether it stands above or below them.

How the values were obtained:
[1] = target: T1, Eukaryotic elongation factor 2 kinase (Homo sapiens) (UniProt O00418); assay: Selectivity interaction (ProQinase) EUB0000171b EEF2K
T1 sequence (whole entry): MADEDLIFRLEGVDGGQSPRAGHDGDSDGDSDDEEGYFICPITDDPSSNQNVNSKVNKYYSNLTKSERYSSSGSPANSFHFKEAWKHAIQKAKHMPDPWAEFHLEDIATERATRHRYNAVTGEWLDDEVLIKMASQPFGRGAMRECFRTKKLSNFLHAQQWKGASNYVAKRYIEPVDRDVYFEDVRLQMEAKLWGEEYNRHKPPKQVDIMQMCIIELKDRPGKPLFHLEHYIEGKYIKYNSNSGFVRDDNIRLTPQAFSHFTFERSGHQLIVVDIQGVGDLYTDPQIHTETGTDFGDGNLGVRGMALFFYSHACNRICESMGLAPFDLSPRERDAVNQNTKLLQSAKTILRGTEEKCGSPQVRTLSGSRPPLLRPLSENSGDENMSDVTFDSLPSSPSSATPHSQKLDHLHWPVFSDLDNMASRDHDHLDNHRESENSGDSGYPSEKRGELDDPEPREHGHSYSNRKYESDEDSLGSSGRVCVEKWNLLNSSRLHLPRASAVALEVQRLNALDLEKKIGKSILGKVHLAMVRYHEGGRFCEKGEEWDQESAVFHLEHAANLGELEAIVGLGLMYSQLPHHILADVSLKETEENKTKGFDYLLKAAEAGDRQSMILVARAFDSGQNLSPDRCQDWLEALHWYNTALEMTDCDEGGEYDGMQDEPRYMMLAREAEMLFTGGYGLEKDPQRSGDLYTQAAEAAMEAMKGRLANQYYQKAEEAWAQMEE

[2] = target: T2, Serine/threonine-protein kinase ULK3 (Homo sapiens) (UniProt Q6PHR2); assay: Selectivity interaction (KinomeScan (DiscoverX)) EUB0000595a ULK3; conditions: at 10 µM
T2 sequence (whole entry): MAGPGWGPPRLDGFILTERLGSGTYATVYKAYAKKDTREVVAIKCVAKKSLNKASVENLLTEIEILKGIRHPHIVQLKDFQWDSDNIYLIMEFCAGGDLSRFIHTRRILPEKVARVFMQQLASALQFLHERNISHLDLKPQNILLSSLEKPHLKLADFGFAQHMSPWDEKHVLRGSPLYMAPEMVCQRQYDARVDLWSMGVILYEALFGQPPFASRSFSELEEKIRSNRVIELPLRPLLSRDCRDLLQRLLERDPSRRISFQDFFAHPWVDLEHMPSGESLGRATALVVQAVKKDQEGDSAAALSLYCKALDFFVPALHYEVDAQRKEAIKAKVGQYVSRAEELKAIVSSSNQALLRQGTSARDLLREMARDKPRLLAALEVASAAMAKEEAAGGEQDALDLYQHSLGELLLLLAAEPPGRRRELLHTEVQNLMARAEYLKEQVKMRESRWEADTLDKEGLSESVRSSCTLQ

[3] = target: T3, Myosin light chain kinase family member 4 (Homo sapiens) (UniProt Q86YV6); assay: Selectivity interaction (Ambit KINOMEscan and KiNATiv profiling in Jurkat cells) EUB0000090b MYLK4; assay type: cell-based; conditions: at 1 µM
T3 sequence (whole entry): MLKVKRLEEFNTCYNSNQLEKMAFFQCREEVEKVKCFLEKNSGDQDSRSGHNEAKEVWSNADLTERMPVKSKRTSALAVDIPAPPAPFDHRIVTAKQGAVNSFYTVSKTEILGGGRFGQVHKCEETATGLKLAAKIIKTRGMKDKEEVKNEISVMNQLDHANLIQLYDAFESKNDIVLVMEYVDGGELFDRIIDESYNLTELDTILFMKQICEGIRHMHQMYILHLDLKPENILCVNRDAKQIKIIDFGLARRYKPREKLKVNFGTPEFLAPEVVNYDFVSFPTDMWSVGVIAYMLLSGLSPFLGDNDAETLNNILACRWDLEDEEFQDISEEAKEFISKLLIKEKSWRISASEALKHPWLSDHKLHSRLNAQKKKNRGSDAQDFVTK

[4] = target: Serine/threonine-protein kinase N2 (Homo sapiens, UniProt Q16513); assay: Selectivity interaction (KinomeScan (DiscoverX)) EUB0000045b PKN2
Chain of Serine/threonine-protein kinase N2 (Q16513 whole entry, looked up): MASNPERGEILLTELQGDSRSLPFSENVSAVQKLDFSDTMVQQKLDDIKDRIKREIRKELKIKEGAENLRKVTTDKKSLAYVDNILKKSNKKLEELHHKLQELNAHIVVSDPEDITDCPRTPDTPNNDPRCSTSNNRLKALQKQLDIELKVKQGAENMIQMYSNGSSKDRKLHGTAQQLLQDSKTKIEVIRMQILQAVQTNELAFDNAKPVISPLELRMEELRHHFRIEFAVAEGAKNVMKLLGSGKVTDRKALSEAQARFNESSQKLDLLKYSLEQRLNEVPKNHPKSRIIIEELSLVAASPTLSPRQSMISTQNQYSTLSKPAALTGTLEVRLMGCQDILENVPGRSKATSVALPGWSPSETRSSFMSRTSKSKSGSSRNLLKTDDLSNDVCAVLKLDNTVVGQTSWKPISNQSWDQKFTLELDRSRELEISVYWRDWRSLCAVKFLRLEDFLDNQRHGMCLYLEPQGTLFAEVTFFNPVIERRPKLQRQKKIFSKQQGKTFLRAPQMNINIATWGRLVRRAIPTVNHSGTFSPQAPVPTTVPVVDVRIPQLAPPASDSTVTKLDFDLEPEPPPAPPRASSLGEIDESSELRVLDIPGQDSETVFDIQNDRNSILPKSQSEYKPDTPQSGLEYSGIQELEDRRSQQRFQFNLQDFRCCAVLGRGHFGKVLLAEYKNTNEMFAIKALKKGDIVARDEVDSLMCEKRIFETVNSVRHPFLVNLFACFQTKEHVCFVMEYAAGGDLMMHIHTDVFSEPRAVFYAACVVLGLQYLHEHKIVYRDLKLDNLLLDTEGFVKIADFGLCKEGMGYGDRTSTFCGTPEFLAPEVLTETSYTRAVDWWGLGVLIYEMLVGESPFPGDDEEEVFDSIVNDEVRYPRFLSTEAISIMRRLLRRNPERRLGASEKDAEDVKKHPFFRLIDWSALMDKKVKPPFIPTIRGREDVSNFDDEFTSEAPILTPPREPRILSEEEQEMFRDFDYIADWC

[5] = target: T4, Hormonally up-regulated neu tumor-associated kinase (Homo sapiens) (UniProt P57058); assay: Selectivity interaction (KinomeScan (DiscoverX)) EUB0001079a HUNK; conditions: at 1 µM
T4 sequence (whole entry): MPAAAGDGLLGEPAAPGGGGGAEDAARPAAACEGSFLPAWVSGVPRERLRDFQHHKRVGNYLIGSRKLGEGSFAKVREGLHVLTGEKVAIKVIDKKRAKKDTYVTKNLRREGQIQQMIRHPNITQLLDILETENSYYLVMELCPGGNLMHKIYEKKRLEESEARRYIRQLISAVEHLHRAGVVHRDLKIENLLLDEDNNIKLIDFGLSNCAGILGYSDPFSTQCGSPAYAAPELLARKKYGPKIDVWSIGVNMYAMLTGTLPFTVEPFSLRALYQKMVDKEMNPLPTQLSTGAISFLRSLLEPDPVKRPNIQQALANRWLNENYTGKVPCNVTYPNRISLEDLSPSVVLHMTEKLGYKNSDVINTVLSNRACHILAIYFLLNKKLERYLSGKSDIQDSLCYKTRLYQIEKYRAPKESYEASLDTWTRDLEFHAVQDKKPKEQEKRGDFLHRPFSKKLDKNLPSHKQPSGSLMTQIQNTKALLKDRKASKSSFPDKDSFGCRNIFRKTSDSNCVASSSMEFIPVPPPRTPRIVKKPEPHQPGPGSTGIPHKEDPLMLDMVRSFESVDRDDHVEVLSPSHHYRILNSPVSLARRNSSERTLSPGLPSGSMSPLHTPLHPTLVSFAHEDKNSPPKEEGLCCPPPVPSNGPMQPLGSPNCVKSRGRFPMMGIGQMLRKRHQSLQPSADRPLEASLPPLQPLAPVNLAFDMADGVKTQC

[6] = target: Tyrosine-protein kinase ABL1 (Homo sapiens, UniProt P00519); conditions: at 10 µM
Chain of Tyrosine-protein kinase ABL1 (P00519 whole entry): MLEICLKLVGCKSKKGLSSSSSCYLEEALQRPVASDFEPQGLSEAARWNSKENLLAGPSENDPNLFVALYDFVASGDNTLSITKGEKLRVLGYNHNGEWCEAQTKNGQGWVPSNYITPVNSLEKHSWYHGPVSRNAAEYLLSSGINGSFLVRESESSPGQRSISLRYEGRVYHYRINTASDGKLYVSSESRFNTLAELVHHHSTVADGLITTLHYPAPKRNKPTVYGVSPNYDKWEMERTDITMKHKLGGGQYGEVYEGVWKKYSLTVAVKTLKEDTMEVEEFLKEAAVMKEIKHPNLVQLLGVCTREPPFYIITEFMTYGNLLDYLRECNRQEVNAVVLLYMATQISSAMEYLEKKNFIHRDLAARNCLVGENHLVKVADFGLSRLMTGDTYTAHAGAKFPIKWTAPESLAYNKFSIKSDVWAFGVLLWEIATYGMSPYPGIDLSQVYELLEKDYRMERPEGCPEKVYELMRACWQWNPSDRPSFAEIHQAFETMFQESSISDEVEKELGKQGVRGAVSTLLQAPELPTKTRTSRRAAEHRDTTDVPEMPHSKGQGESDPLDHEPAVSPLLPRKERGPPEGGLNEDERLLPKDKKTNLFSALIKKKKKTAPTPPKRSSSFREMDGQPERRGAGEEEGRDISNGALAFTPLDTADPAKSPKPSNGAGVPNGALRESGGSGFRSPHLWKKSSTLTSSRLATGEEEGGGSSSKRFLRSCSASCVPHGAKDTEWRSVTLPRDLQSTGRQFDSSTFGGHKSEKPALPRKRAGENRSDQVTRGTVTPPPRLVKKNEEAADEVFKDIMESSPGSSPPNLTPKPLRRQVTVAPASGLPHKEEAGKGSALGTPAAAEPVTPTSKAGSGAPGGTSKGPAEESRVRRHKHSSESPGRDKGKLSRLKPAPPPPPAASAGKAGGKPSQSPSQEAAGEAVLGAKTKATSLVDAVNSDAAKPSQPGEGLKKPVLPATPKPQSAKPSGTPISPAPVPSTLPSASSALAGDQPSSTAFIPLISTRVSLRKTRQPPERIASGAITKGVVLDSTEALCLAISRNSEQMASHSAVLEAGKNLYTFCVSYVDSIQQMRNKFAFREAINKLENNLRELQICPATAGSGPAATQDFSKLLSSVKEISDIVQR

% of control ([1]; at 1 µM): 91%
% of control ([1]; at 5 µM): 92%
SMILES: C=CC(=O)Nc1cccc(C(=O)Nc2ccc(Nc3cc(-c4[nH]c(SC)nc4C)ccn3)cc2)c1

SMILES: COCC(=O)NC/C=C/c1ccc2ncnc(Nc3ccc(Oc4ccc(C)nc4)c(C)c3)c2c1 [CP-724714]
% of control [2]: 68%

SMILES: CN(C)C/C=C/C(=O)Nc1ccc(C(=O)N2CCCC(Nc3ncc(Cl)c(-c4c[nH]c5ccccc45)n3)C2)cc1 (stereo not drawn)
% of control [3]: 55%

SMILES: C=CC(=O)Nc1cc(-n2c(=O)ccc3cnc4ccc(-c5ccc(NS(C)(=O)=O)cc5)cc4c32)ccc1C
% of control ([4]; at 1 µM): 100%
% of control ([4]; at 10 µM): 100%

SMILES: Nc1cnc(N2CCc3cc(S(=O)(=O)Nc4c(F)cc(Cl)cc4F)cc(N4CCCC4=O)c32)nc1 [TP-020n]
% of control [5]: 99%

SMILES: Cc1cc([C@@H](C)Nc2ccccc2C(=O)O)c2nc(N3CCOCC3)cc(=O)n2c1 [AZD-6482]
% of control [6]: 100%
